Counter-ions that a name gives are not always drawn. Like-named read-outs stand apart in the source and are kept apart here.
Tests used:
[1] = tested on: adriamycin-induced cardiomyopathy
Description: The composition of the present invention was examined for suppression effects against adriamycin-induced cardiomyopathy.
A total of 25 male mice (33±5 g, four-week-old) were divided into four groups: three test groups of seven, and one control group of four. Adriamycin (tradename: Doxorubicin Hydrochloride; Sigma-Aldrich, Co, LLC; St. Louis, Mo., USA) in distilled water was intraperitoneally injected at a dose of 1.25 mg/kg once a week for six weeks in the adriamycin group. The other two experimental groups, low-dose and high-dose group, were orally administered with composition 4 at a dose of 32 mg/kg and 64 mg/kg, respectively, everyday for one week, and then intraperitoneally injected with adriamycin in distilled water at a dose of 1.25 mg/kg once a week for six weeks. The control group of 4 mice was injected once a week for six weeks with physiological saline. During the experiment, the mice were given access to food and water ad libitum.
The mice were generally anesthetized before and after the six-week experiment, and subjected to two-dimensional echocardiography using a 15-MHz transducer to measure left ventricular end-diastolic dimension (LVEDD) and left ventricular end-systolic dimension (LVESD), left ventricular end-diastolic posterior wall thickness (PW), and left ventricular end-systolic posterior wall thickness (PW). From these measurements, relative wall thickness (RWT), fraction shortening (FS), and left ventricular ejection fraction (LVEF) were calculated. The echocardiographic data are expressed as mean value±SD of five or higher independent measurements.

[2] = tested on: ovarian carcinoma cell line SKOV3 tumors; test: SKOV3 ovarian carcinoma xenograft, tumor volume and weight; format: in vivo, Balb/c nu/nu mice
Description: The ovarian carcinoma cell line SKOV3 was detached from a culture dish using trypsin-EDTA, and diluted to a density of […] cells/150 in an RPMI medium supplemented with 10% FBS, followed by subcutaneous injection into the right flank of Balb/c nu/nu mice using a syringe. […] The control group was treated with PBS. During the experimental period, the tumor size, body weight and dietary intake of mice in each group was recorded three times per week.
After 4 weeks, the animals were sacrificed and blood was taken from the animals. Tumors were e.xcised from the animals and measured for size and weight.

[3] = Dietary intake (anorexia) in SKOV3 tumor-bearing mice; format: in vivo, Balb/c nu/nu mice; details: for Diet Intake: Cisplatin group (cisplatin 3 mg/kg i.p.)
[4] = tested on: SKOV3 ovarian carcinoma cell line; test: Inhibition of cancer cell proliferation, MTT assay, SKOV3; format: cell-based; details: SKOV3, 24 hrs incubation
Description: (§1) Ovarian […] carcinoma cell lines (SKOV3, A2780) were incubated in minimum essential medium [MEM] supplemented with 10% FBS, 100 units/ml antibiotic antimycotic, and 2.2 g/L sodium bicarbonate at 37° C. for 24 hrs in 96-well plates. The ovarian carcinoma cell lines were seeded at a density of 1×10^4 cells/well into 96-well plates and allowed to adhere to the bottom during incubation for 24 hrs. […] The cells in each well were treated with […] of an MTT reagent (1 mg/ml) for 4 hrs in a dark condition. After the medium was aspirated, the MTT fromazan thus formed was dissolved in […] of DMSO, and absorbance was measured at 540 nm using spectrophotometer.

[5] = tested on: Ovarian carcinoma cells (SKOV3); test: Apoptosis by PI staining / FACS, co-treatment with Cisplatin; format: cell-based; details: Individual, 48 hrs
Description: Apoptotic effects were assessed using a PI staining method. Propidium iodide (PI) is a fluorescent molecule that can bind to DNA of dead cells to evaluate cell cycle and cell viability.
Ovarian carcinoma cells (SKOV3) were incubated at 37° C. for 24 hrs in minimum essential medium [MEM] supplemented with 10% FBS, 100 units/ml antibiotic antimycotic, and 2.2 g/L sodium bicarbonate in 96-well plates. The ovarian carcinoma cell line was seeded at a density of 1×10^4 cells/well into 96-well plates and allowed to adhere to the bottom during incubation for 24 hrs. […] Afterwards, the cells were washed with PBS, and detached with trypsin-EDTA, followed by centrifugation at 1,000 rpm for 10 min. The cells were fixed with 70% ethanol at 4° C. for 24 hrs. After removal of the ethanol, the cells were washed many times with PBS, suspended in PBS containing RNaseA, and reacted with a PI reagent for 10 min at room temperature in a dark condition.

[6] = tested on: A2780 ovarian carcinoma cell line; test: Inhibition of cancer cell proliferation, MTT assay, A2780; format: cell-based; details: A2780, 24 hrs incubation
Description: as §1

[7] = Adriamycin Group, Week 0 (Baseline)

**Q.** Which results are given for COc1cccc2c1C(=O)c1c(O)c3c(c(O)c1C2=O)C[C@@](O)(C(=O)CO)C[C@@H]3O[C@H]1C[C@H](N)[C@H](O)[C@H](C)O1 [Adriamycin, Doxorubicin Hydrochloride]?
**A.** LVEDD [1, 7]: 5.7 ± 0.2 mm; LVESD [1, 7]: 2.4 ± 0.3 mm; PW [1, 7]: 1.6 ± 0.2 mm; FS ([1]; Adriamycin Group, Week 6): 44.2 ± 3.2%; LVEF ([1]; Adriamycin Group, Week 6): 70.3 ± 0.3%; LVESD ([1]; Adriamycin Group, Week 6): 3.8 ± 0.3 mm; PW ([1]; Adriamycin Group, Week 6): 1.4 ± 0.3 mm; FS Δ(6 − 0) ([1]; Adriamycin Group, Δ(6 − 0)): 14.4 ± 1.5%; LVEDD Δ(6 − 0) ([1]; Adriamycin Group, Δ(6 − 0)): 1.1 ± 0.1 mm; LVEF Δ(6 − 0) ([1]; Adriamycin Group, Δ(6 − 0)): 15.2 ± 3.0%; LVESD Δ(6 − 0) ([1]; Adriamycin Group, Δ(6 − 0)): 1.4 ± 0.0 mm; PW Δ(6 − 0) ([1]; Adriamycin Group, Δ(6 − 0)): 0.2 ± 0.1 mm; cardiomyopathy after 6 weeks ([1]; echocardiography after 6 weeks of study): cardiomyopathy with significant decrease in left ventricular posterior wall thickness (PW) and in fractional shortening (FS)

**Q.** For N.N.[Cl][Pt][Cl] [Cisplatin, cis-Diammineplatinum (II) dichloride], which “tumor size compared to control” value ([2]; 4 weeks administration) is on record?
**A.** Its value is “slightly reduced”.

**Q.** What about the “Tumor Weight after 4 Weeks” value ([2]; Cisplatin alone (3 mg/kg i.p.)) of the same molecule?
**A.** The value was 1.7 gram.

**Q.** And the “Tumor Volume” value ([2]; Cisplatin alone (3 mg/kg i.p.), Week 1)?
**A.** The value was 100 mm3.

**Q.** What about the “Tumor Volume” value ([2]; Cisplatin alone (3 mg/kg i.p.), Week 2) of the same molecule?
**A.** The value was 134 mm3.

**Q.** And the “Tumor Volume” value ([2]; Cisplatin alone (3 mg/kg i.p.), Week 3)?
**A.** Its value is 144 mm3.

**Q.** And the “Tumor Volume” value ([2]; Cisplatin alone (3 mg/kg i.p.), Week 4)?
**A.** The value was 162 mm3.

**Q.** What about the “Diet Intake” value ([3]; Week 0) of the same molecule?
**A.** Its value is 4.8 gram.

**Q.** What about the “Diet Intake” value ([3]; Week 1) of the same molecule?
**A.** Its value is 4.6 gram.

**Q.** What about the “Diet Intake” value ([3]; Week 2) of the same molecule?
**A.** Its value is 4.0 gram.

**Q.** And the “Diet Intake” value ([3]; Week 3)?
**A.** Its value is 3.7 gram.

**Q.** What about the “Diet Intake” value ([3]; Week 4) of the same molecule?
**A.** Its value is 4.1 gram.

**Q.** What about the “dietary intake compared to control group” value ([3]; during the experimental periods) of the same molecule?
**A.** Its value is “decrease in dietary intake”.

**Q.** What about the IC50 SKOV3 [4] of the same molecule?
**A.** Its IC50 SKOV3 is 12.3 µg/mL.

**Q.** What about the “Apoptosis (%)” value ([5]; Cisplatin 3 μM) of the same molecule?
**A.** The value was 3.0%.

**Q.** And the “Apoptosis (%)” value ([5]; Cisplatin 5 μM)?
**A.** The value was 3.5%.

**Q.** And the IC50 A2780 [6]?
**A.** The IC50 A2780 was 6.01 µg/mL.
